Assay results reported in ChEMBL document CHEMBL5291721, “A preclinical secondary pharmacology resource illuminates target-adverse drug reaction associations of marketed drugs” (Nat Commun, 2023).

Assays:
[1] = molecular target: 5-hydroxytryptamine receptor 2B (Homo sapiens, UniProt P41595); format: functional, cell-based
[2] = molecular target: T1, Alpha-2A adrenergic receptor (Homo sapiens, UniProt P08913)
T1 sequence (P08913 whole entry): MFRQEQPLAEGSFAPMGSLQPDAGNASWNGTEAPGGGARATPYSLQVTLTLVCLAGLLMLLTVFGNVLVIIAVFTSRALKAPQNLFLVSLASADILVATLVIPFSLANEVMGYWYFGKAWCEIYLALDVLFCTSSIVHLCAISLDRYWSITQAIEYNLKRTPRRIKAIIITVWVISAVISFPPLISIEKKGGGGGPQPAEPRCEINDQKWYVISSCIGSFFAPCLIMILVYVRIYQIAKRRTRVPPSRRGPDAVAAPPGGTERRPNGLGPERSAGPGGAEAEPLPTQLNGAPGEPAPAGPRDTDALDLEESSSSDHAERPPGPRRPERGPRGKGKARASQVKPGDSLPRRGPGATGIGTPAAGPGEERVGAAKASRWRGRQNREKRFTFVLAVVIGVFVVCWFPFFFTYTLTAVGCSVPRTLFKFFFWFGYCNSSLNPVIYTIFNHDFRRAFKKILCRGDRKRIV

Prothrombin = Prothrombin (Homo sapiens, UniProt P00734); format: functional
[3] = molecular target: Sodium-dependent dopamine transporter (Homo sapiens, UniProt Q01959)
[4] = molecular target: Voltage-gated inwardly rectifying potassium channel KCNH2 (Homo sapiens, UniProt Q12809); format: functional
[5] = molecular target: cGMP-inhibited 3',5'-cyclic phosphodiesterase 3A (Homo sapiens, UniProt Q14432); format: functional
Acetylcholinesterase = Acetylcholinesterase (Homo sapiens, UniProt P22303); format: functional
[6] = molecular target: 3',5'-cyclic-AMP phosphodiesterase 4A (Homo sapiens, UniProt P27815); format: functional
[7] = molecular target: T2, 5-hydroxytryptamine receptor 1A (Homo sapiens, UniProt P08908)
T2 sequence (P08908 whole entry): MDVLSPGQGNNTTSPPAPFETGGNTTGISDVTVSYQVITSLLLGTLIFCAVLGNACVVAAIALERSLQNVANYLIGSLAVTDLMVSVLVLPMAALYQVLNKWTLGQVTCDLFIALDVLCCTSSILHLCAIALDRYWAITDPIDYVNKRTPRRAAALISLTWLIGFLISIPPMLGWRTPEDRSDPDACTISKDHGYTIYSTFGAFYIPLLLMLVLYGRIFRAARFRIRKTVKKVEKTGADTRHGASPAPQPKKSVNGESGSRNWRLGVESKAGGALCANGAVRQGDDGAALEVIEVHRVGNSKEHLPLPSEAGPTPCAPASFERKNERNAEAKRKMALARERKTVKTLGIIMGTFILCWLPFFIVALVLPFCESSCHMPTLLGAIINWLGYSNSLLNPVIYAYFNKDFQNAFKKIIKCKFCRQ

Thromboxane A2 receptor [8] = molecular target: T3, Thromboxane A2 receptor (Homo sapiens, UniProt P21731); format: functional, cell-based
T3 sequence (P21731 whole entry): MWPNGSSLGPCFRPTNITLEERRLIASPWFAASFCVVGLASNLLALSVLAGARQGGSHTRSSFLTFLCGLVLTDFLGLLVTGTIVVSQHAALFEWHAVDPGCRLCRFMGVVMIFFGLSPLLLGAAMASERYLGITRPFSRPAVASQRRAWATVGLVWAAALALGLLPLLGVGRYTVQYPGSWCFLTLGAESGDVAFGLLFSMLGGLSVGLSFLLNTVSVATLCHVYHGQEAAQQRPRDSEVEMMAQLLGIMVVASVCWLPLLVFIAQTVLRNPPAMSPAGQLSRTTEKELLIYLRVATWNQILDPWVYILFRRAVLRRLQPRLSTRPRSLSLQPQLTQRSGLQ

[9] = molecular target: T4, Amine oxidase [flavin-containing] A (Homo sapiens, UniProt P21397); format: functional
T4 sequence (P21397 whole entry): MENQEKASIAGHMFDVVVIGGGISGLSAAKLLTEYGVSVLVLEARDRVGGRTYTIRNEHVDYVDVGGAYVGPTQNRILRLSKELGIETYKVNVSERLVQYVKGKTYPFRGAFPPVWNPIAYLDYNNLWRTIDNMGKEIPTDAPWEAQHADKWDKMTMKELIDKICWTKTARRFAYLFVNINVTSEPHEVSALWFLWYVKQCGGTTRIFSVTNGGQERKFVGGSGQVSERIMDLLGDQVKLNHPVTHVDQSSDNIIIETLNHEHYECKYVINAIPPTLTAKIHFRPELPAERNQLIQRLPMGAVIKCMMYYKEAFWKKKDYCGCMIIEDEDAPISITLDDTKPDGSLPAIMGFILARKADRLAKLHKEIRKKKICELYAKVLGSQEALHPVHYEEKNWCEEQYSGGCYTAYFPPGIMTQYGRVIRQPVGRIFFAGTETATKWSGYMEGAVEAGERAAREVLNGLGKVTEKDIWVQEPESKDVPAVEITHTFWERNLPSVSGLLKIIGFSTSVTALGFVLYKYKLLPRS

Thromboxane A2 receptor [10] = molecular target: T3, Thromboxane A2 receptor; format: functional, cell-based; remark: listed apart in the source
Histamine H3 receptor = Histamine H3 receptor (Homo sapiens, UniProt Q9Y5N1)
[11] = molecular target: T5, Muscarinic acetylcholine receptor M2 (Homo sapiens, UniProt P08172)
T5 sequence (P08172 whole entry): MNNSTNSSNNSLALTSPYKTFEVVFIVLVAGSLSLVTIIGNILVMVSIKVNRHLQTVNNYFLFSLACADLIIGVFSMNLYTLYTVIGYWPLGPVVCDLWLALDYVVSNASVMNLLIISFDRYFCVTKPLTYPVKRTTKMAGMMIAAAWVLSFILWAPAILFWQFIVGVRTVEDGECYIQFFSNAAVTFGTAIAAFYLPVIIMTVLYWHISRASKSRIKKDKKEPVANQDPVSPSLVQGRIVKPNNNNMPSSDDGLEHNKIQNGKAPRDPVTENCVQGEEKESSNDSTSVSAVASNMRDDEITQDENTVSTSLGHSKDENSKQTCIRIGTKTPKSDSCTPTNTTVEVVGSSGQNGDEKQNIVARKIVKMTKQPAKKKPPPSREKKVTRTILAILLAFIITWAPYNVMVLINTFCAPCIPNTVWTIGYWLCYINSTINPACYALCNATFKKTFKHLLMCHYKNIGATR
Further: assay procedure not described here.

Histamine H3 receptor, sequence (Q9Y5N1 whole entry): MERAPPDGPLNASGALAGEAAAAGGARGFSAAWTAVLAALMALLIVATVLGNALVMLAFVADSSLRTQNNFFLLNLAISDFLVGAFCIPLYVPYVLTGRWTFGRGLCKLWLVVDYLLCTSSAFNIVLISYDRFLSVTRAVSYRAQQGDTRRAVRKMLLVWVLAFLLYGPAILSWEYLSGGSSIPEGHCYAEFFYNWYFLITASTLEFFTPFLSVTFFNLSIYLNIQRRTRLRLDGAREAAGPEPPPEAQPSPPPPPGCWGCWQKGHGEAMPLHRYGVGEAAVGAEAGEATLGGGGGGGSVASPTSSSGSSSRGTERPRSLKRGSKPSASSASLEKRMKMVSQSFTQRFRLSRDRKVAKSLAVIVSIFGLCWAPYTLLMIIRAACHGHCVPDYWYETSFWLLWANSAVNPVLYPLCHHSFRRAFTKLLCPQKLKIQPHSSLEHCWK
Acetylcholinesterase, sequence (P22303 whole entry): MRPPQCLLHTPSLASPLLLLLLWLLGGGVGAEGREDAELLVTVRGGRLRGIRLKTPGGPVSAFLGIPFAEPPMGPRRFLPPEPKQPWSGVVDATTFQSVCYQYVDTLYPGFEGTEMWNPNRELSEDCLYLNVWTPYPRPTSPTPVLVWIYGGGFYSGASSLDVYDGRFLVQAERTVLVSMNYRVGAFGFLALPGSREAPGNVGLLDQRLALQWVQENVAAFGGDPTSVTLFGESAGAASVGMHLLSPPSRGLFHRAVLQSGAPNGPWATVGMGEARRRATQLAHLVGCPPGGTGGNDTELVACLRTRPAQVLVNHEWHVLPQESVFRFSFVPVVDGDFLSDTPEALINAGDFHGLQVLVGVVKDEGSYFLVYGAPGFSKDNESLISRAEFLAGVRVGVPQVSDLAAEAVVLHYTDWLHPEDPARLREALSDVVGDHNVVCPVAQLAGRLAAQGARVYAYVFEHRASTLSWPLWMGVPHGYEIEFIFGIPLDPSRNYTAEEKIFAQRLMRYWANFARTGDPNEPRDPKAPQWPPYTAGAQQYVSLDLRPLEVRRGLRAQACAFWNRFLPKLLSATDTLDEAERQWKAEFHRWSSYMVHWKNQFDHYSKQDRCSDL
Voltage-gated inwardly rectifying potassium channel KCNH2, sequence (Q12809 whole entry): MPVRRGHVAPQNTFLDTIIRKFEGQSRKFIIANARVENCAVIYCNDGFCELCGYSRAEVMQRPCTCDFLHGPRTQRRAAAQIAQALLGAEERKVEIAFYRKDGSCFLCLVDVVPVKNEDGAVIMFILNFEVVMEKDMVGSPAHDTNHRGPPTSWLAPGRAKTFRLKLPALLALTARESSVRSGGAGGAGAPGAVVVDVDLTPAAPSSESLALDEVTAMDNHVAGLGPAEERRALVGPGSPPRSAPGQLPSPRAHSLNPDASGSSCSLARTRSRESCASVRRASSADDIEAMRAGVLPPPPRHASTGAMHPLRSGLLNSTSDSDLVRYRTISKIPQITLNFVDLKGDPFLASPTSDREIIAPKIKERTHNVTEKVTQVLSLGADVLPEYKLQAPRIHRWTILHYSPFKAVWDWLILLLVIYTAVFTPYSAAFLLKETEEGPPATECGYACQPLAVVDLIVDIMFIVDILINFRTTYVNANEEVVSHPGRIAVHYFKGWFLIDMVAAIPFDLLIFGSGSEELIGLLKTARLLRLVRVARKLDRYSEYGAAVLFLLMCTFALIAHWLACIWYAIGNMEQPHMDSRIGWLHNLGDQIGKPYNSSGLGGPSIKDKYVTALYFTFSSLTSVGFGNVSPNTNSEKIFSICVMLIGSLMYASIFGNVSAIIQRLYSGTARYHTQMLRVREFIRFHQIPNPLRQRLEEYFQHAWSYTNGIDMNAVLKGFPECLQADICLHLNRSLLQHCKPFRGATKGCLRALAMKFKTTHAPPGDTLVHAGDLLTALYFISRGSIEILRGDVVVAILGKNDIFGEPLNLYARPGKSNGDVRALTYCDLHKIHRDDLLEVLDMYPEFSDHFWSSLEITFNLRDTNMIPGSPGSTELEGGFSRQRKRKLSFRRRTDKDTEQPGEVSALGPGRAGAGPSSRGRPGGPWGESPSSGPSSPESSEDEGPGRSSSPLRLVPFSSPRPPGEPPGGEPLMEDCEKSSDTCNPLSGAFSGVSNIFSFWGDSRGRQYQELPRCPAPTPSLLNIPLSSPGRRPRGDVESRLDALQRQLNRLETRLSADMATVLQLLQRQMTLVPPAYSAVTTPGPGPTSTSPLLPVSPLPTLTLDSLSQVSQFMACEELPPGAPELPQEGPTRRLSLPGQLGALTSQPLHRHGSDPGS
5-hydroxytryptamine receptor 2B, sequence (P41595 whole entry): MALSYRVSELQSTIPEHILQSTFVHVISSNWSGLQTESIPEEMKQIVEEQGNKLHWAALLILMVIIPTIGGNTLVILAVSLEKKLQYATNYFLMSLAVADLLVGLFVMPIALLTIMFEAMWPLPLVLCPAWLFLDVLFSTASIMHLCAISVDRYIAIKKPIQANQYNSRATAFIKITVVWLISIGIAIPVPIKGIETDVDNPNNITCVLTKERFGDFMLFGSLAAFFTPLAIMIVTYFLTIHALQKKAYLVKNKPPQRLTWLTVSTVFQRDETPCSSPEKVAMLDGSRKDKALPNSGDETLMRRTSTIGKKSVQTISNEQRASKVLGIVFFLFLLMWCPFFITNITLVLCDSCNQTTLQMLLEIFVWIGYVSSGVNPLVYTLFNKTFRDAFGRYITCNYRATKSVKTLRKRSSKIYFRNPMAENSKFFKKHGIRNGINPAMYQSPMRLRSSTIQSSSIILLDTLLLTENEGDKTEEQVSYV
Sodium-dependent dopamine transporter, sequence (Q01959 whole entry): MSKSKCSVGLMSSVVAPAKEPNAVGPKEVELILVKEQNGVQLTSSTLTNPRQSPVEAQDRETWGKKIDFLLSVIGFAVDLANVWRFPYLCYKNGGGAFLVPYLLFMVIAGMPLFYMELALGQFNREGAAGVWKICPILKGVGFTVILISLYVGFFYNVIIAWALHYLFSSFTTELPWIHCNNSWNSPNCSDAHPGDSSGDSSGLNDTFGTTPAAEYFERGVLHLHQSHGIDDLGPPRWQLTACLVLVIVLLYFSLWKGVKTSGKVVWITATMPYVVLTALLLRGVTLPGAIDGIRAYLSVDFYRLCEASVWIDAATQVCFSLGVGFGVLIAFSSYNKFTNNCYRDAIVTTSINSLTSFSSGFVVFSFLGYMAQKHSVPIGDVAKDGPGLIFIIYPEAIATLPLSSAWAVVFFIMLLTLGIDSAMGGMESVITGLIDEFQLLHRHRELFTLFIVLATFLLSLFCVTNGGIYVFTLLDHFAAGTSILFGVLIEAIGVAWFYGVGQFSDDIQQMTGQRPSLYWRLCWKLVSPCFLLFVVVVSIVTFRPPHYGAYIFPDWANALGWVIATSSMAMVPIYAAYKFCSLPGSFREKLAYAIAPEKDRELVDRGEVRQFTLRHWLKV
3',5'-cyclic-AMP phosphodiesterase 4A, sequence (P27815 whole entry): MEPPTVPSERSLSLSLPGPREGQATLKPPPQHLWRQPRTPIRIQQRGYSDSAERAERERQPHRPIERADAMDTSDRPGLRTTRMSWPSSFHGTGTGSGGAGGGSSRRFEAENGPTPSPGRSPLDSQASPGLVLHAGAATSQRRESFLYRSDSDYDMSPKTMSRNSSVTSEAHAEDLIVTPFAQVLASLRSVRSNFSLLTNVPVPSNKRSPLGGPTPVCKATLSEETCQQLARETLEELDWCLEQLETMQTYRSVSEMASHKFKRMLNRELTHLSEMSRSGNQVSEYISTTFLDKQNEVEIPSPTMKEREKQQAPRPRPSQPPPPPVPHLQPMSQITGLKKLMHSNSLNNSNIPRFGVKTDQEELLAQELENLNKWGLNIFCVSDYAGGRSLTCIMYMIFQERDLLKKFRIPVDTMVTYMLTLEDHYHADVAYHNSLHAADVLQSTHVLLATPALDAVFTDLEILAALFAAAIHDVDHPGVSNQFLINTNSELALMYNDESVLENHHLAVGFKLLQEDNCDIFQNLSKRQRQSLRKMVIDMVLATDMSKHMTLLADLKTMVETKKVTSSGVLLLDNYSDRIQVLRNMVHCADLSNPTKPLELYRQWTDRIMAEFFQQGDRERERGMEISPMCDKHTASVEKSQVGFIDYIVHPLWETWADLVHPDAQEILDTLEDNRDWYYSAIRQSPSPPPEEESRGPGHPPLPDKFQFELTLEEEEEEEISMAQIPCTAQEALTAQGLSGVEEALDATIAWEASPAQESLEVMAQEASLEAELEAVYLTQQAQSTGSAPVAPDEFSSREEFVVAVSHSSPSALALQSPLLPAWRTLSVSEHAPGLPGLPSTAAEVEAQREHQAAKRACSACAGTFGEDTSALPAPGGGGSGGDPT

| SMILES | AC50 [1] [µM] | AC50 [2] [µM] | AC50 (Prothrombin) [µM] | AC50 [3] [µM] | AC50 [4] [µM] | AC50 [5] [µM] | AC50 (Acetylcholinesterase) [µM] | AC50 [6] [µM] | AC50 [7] [µM] | AC50 (Thromboxane A2 receptor [8]) [µM] | AC50 [9] [µM] | AC50 (Thromboxane A2 receptor [10]) [µM] | AC50 (Histamine H3 receptor) [µM] | AC50 [11] [µM] |
| --- | --- | --- | --- | --- | --- | --- | --- | --- | --- | --- | --- | --- | --- | --- |
| Cc1ccc(S(=O)(=O)NC(=O)NC2CCCCC2)cc1 [GLYCYCLAMIDE] | > 30 | > 30 | > 30 | > 30 | > 30 | > 30 | > 30 | > 30 | > 30 | > 30 | > 30 | > 30 | > 30 | > 30 |
| CN1CCCN(C(c2ccccc2)c2ccc(Cl)cc2)CC1 (centres undefined) [HOMOCHLORCYCLIZINE] | > 30 | 1.35 | > 30 | 0.229 | 0.81 | > 30 | > 30 | > 30 | 13.7 | 11.8 | > 30 | > 3 | > 30 | 0.149 |
| CC(=O)OCC(=O)[C@@]1(O)CC[C@H]2[C@@H]3CCC4=CC(=O)CC[C@]4(C)[C@H]3[C@@H](O)C[C@@]21C [HYDROCORTISONE ACETATE] | > 30 | > 30 | > 30 | > 30 | > 30 | > 30 | > 30 | > 30 | > 30 | > 30 | > 30 | > 30 | > 30 | > 30 |
| CC(COc1ccccc1)NC(C)C(O)c1ccc(O)cc1 (centres undefined) [ISOXSUPRINE] | > 30 | 0.446 | > 30 | 0.625 | 15 | > 30 | > 30 | > 30 | 0.203 | > 30 | > 10 | > 30 | > 30 | > 30 |
| Cc1oc(=O)oc1COC(=O)[C@@H]1N2C(=O)[C@@H](NC(=O)[C@H](N)c3ccccc3)[C@H]2SC1(C)C [LENAMPICILLIN] | > 30 | > 30 | > 30 | > 30 | > 30 | > 30 | > 30 | > 30 | > 30 | > 30 | > 30 | 24.9 | > 30 | > 30 |
| COc1ccc(OC)c(C(O)C(C)N)c1 (centres undefined) [METHOXAMINE] | > 30 | 25.9 | > 30 | > 30 | > 30 | > 30 | > 30 | > 30 | > 30 | > 30 | > 30 | > 30 | > 30 | > 30 |
